Measured values: ChEMBL document CHEMBL3988442, “University of Dundee, Small-Polar-MMV Screening Library” (2021)

How the values were obtained:
[1] = target: T1, Coenzyme A biosynthesis bifunctional protein CoaBC (Mycobacterium tuberculosis (strain ATCC 25618 / H37Rv), UniProt P9WNZ1); assay: Biomol Green assay for MtCoaBC inhibitor, OD650 read; format: functional
T1 sequence (P9WNZ1 whole entry): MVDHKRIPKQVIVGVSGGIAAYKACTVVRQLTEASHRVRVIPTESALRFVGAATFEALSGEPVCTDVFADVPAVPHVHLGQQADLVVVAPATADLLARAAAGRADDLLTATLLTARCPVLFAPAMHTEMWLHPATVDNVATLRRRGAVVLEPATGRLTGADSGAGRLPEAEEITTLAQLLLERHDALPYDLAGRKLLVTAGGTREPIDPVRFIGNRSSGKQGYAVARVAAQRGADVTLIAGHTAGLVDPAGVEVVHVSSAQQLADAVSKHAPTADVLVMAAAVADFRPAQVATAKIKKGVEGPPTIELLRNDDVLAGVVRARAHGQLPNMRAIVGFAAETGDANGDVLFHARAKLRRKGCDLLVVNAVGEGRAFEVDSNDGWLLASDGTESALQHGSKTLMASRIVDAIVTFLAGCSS

Leishmania donovani = assay: Leishmania intramacrophage assay; format: functional, organism-based; conditions: for IC50: Leishmania donovani
[2] = In vitro enzyme assay to detect hydrolysis of chlorophenol red-beta-D-[…] directly proportional to the number of Toxoplasma stably expressing beta-galactosidase; format: functional, organism-based, Toxoplasma gondii
Plasmodium falciparum = assay: Calibr Malaria Delayed Death Assay SOP; format: functional, organism-based; conditions: for IC50: Plasmodium falciparum
[3] = microbe, parasite or virus in culture; conditions: Mycobacterium tuberculosis, 96 h, read-out: pIC50 (converted)
[4] = microbe, parasite or virus in culture; conditions: Mycobacterium tuberculosis, 72 h, read-out: pIC50 (converted)
Tryptophan--tRNA ligase = Tryptophan--tRNA ligase (Mycobacterium tuberculosis (strain ATCC 25618 / H37Rv), UniProt P9WFT3); assay: Biochemical assay for Mt-TrpRS; format: functional
Sequence of Tryptophan--tRNA ligase (P9WFT3 whole entry): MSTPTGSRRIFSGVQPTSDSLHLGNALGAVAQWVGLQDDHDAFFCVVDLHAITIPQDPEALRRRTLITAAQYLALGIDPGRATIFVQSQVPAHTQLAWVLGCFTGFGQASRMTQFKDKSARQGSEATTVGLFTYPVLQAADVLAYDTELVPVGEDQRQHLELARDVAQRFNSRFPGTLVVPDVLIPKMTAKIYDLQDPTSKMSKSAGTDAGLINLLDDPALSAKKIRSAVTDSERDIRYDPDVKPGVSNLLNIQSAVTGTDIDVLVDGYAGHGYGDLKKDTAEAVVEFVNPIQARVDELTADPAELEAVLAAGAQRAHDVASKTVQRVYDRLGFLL

Row | Compound | IC50 [1] [µM] | other results
1 | COCCCN(Cc1ccccn1)S(=O)(=O)N(C)C | > 30.2 | 
2 | CC(C)CCc1n[nH]c(C(=O)O)c1Cl | > 50.1 | 
3 | Cc1nc(CN2CCCC2Cn2cncn2)nc2ccccc12 (stereo not drawn) | > 30.2 | 
4 | Cc1cnn(CC2CCCN2Cc2nnc(-c3ccccc3)o2)c1 (stereo not drawn) | > 30.2 | 
5 | Cc1cc(C(F)(F)F)nn1CC(C)C(=O)Nc1ccccn1 (stereo not drawn) | > 30.2 | 
6 | O=C(O)c1cc(-c2ccoc2)cc(S(=O)(=O)N2CCSCC2)c1 | > 30.2 | 
7 | Clc1ccccc1C1(c2ccnc(C3CC3)n2)CCNCC1 |  | IC50 (Leishmania donovani): 23.9 µM; pIC50 [2]: 4.703; IC50 ([2]; Toxoplasma gondii): 15.4 µM; pIC50 (Plasmodium falciparum): 6.224; IC50 (Plasmodium falciparum): 0.536 µM
8 | Cc1cccc(CNC(=O)NCC2CCN(Cc3ncc[nH]3)C2)c1 (stereo not drawn) | > 30.2 | 
9 | O=c1c2ccccc2nc2n1CCC2O (stereo not drawn) | > 30.2 | 
10 | CN(CC(C)(CO)CO)C(=O)Nc1cc(Cl)cc(Cl)c1 | > 30.2 | 
11 | O=C(NCc1nc(NC2CCCC2)c2cc(Cl)ccc2n1)c1ccoc1 | > 30.2 | 
12 | COc1ccc(CN2CCC3(CCCN(C)C3=O)C2)c(OC)c1C (stereo not drawn) | > 30.2 | 
13 | COCC1c2nnn(CC3CC3)c2CCN1C(=O)N1CCCC1 (stereo not drawn) | > 30.2 | 
14 | O=C1N(Cc2ccccn2)C[C@H]2CN(C3CCC3)CCN12 | > 30.2 | 
15 | O=C(CCNc1ncccn1)Nc1ccc(Cn2cncn2)cc1 | > 30.2 | 
16 | CC[C@@H](Cn1ncc2ccccc2c1=O)NC(=O)c1ccco1 | > 30.2 | 
17 | O=C(c1ccc(-n2cnnn2)cc1)N1CCCC(n2ccnc2)C1 (stereo not drawn) | > 30.2 | 

Row | Compound | IC50 [1] [µM] | other results
18 | CCN1C[C@H]2[C@@H](C1)N(S(=O)(=O)c1cccnc1)CC[C@H]2OC | > 30.2 | 
19 | CCCS(=O)(=O)NCC(O)c1c(Cl)cccc1Cl (stereo not drawn) | > 30.2 | 
20 | COc1cccc([C@@]2(O)CC[C@@H]3CN(C(=O)c4ccn(C)n4)C[C@@H]32)c1 | > 30.2 | 
21 | Cc1ccc(-c2cc(C(=O)NCCCc3csc(N)n3)[nH]n2)o1 | > 30.2 | 
22 | CN1CCOC(CNCc2cccc(OC(F)(F)F)c2)C1 (stereo not drawn) | > 30.2 | 
23 | CC(=O)Nc1nc(C(=O)N2CCCC2c2noc(C3CC3)n2)cs1 (stereo not drawn) | > 30.2 | 
24 | CC(=O)N1CCC(N2CCN3C(=O)N(Cc4ccccn4)C[C@H]3C2)CC1 | > 30.2 | 
25 | CC1(C)CN(CCC(=O)NCc2cccc(Cl)c2)CC[C@]1(C)O | > 30.2 | 
26 | CC1c2ncc(Cn3cncn3)n2CCN1C(=O)c1ccsc1 (stereo not drawn) | > 30.2 | 
27 | CC1CCN(CCNC(=O)c2ccn(-c3ccc(F)cc3)n2)CC1 | > 30.2 | 
28 | O=C(NCCNc1ncccn1)C1CCCC1 | > 30.2 | 
29 | O=C(CN1CCCC(c2ccn[nH]2)C1)Nc1nncs1 (stereo not drawn) | > 30.2 | 
30 | Cc1nn(C)c(Cl)c1C1CCCN1Cc1nc(-c2ccco2)no1 (stereo not drawn) | > 30.2 | 
31 | CN1CCN(CC(NCc2ccc(F)c(F)c2)c2ccccc2)CC1 (stereo not drawn) |  | IC50 (Leishmania donovani): 11.3 µM; pIC50 (Plasmodium falciparum): 6.278; IC50 (Plasmodium falciparum): 0.618 µM; IC50 [3]: > 50.1 µM; IC50 [4]: 17.1 µM
32 | N[C@@H]1CCC[C@@H](Oc2ccc(F)cc2Oc2ccccc2)[C@@H]1O |  | pIC50 (Leishmania donovani): 4.886; IC50 (Leishmania donovani): 11.2 µM; IC50 (Tryptophan--tRNA ligase): > 195 µM; pIC50 (Plasmodium falciparum): 6.155; IC50 (Plasmodium falciparum): 0.602 µM
33 | O=C(C1CNCCO1)N1CCCC(c2ccccc2)(c2ccccc2)C1 (stereo not drawn) |  | pIC50 (Leishmania donovani): 4.781; IC50 (Leishmania donovani): 11.6 µM; pIC50 (Plasmodium falciparum): 6.124; IC50 (Plasmodium falciparum): 0.975 µM
